Test results as given in patent publication US10761087B2, “Choroidal neovascularization suppressor or drusen formation suppressor, and method for assessing or screening for same” (Link Genomics, Inc., priority 2015, dated 2020).
Read-outs that look alike come from different tables or passages of the source.

Key:
mouse = test: In vivo model test for drusen suppression (TNF-a induced drusen-like structure in retinal region); conditions: oral, 14 days; oxaprozin 600 mg/kg/day, epalrestat 600 mg/kg/day, zaltoprofen 40 mg/kg/day
Experimental: In the vicinity of the retina in the posterior segment of eyeball of mouse, 400 ng of Recombinant Mouse TNF-a (R&D Systems, # 410-MT) was administered. After two weeks from administration, an eye ball was extracted, and a formalin-fixed, paraffin-embedded block was prepared. The tissue sample was deparaffinized by treating three times with xylene for 5 minutes each, twice with 100% ethanol for 1 minute each, with 90% ethanol for 1 minute, with 80% ethanol for 1 minute, with 70% ethanol for 1 minute, and with water for 5 minutes. Staining was conducted with a Mayer' s hematoxylin solution for 4 minutes, and with an eosin liquid for 1 minute. After treating for 5 minutes in flowing water, treatments were conducted with 70% ethanol for 1 minute, with 80% ethanol for 1 minute, with 90% ethanol for 1 minute, twice with 100% ethanol for 1 minute each, and three times with xylene for 5 minutes each, followed by mounting with Marinol. After drying for 15 minutes or more at room temperature, the untreated RPE cells, and the RPE cells in which inflammation is induced were observed. An eyeball tissue segment was prepared from a block. After incubation for 30 minutes in a gas-phase incubator at 56° C., the tissue sample was deparaffinized by treating three times with xylene for 5 minutes each, twice with 100% ethanol for 1 minute each, with 90% ethanol for 1 minute, with 80% ethanol for 1 minute, with 70% ethanol for 1 minute, and with water for 5 minutes. After removing a melanin pigment in tissues using Delicate Melanin Bleach Kit for Special Stains and IHC (Polysciences, # 24909-1) according to the manufacturer's protocol, a microwave treatment using a citrate buffer pH 6.0 was conducted for 10 minutes to activate the antigen. After standing still for 30 minutes at room temperature, treatments were conducted with PBS for 5 minutes, with a 3% hydrogen peroxide/PBS solution for 5 minutes, and with PBS for 5 minutes to inactivate an endogenous peroxidase. The sample was stood still in a 3% BSA/PBS solution for 30 minutes at room temperature to block the tissues. As primary antibodies, an anti-E-Cadherin antibody (BD Biosciences, # 610182) that was 500-fold diluted with a 1.5% BSA/PBS solution, and an anti-Cytokeratin antibody (Sigma, # C2931) that was 1000-fold diluted, and an anti-Fibronectin antibody (abcam, # 45688) that was 1000-fold diluted, and an anti-Vimentin antibody (Cell signaling Technology, # 5741) that was 100-fold diluted were added in an amount of 200 μL per one tissue, and caused to react with the tissues for 17 hours at 4° C. The tissues reacted with the primary antibodies were washed three times with PBS for 5 minutes each, then caused to react with a secondary antibody (a Mouse on Mouse (M. O. M.) Elite Peroxidase Kit (Vector Laboratories, # PK-2200) for the anti-E-Cadherin antibody and the anti-Cytokeratin antibody, and a VECTASTAIN Elite ABC Rabbit IgG Kit (Vector Laboratories, # PK-6101) for the anti-Fibronectin antibody and the anti-Vimentin antibody) for 30 minutes at room temperature, then washed three times with PBS for 5 minutes each, and then subjected to an ABC reaction for 30 minutes at room temperature according to the manufacturer's protocol. After washing the tissues three times with PBS for 5 minutes each, color development was caused for 3 minutes at room temperature using an ImmPACT AMEC Red Peroxidase (HRP) Substrate (Vector Laboratories, # SK-4285). The color-developed tissues were stained by using a New hematoxylin Type M (MUTO PURE CHEMICALS CO., LTD., # 30141), and then stood still in flowing water for 3 minutes, and treated with 70% ethanol for 1 minute, with 80% ethanol for 1 minute, with 90% ethanol for 1 minute, twice with 100% ethanol for 1 minute each, and three times with xylene for 5 minutes each, and mounted with the use of Marinol. After drying for 15 minutes or more at room temperature, observation was conducted. […]

[1] = cited from earlier work
C57BL/6J mouse = test: Mouse laser irradiation model: CNV assessment by fluorescent fundus photograph; assay type: in vivo; conditions: 25 mg/kg orally once a day, versus Vehicle administration group
Experimental: It is known that laser irradiation of a mouse ocular fundus induces choroidal angiogenesis and EMT (Reference document: Ishikawa, et al, Exp Eye Res. 2016 January; 142:19.25). So, zaltoprofen was assessed for the suppressive effect of CNV and EMT by using a mouse laser irradiation model. A zaltoprofen suspension was prepared by stirring 0.15 g of zaltoprofen (available from TOKYO CHEMICAL […] CO., LTD.) and 0.75 g of gum arabic (available from Wako Pure Chemical Industries, Ltd.) in 60 mL of water. A medium (Vehicle) was prepared by dissolving and stirring 0.75 g of gum arabic in 60 mL of water. Then, an ocular fundus of a C57BL/6J mouse (8-week old, N=13) was laser-irradiated at four points for each eye under a slit lump using a multi-color laser light coagulator. From directly after irradiation, a vehicle or a zaltoprofen solution (25 mg/kg) was orally administered once a day for three weeks, and the following assessments were conducted. For (1) and (3), the same individual was used. After two weeks from laser irradiation, Fluorescite Injection 500 mg (Alcon Japan Ltd.) was administered (1 mL/kg) from the caudal vein, after about 1 minute from the administration, and a fluorescent fundus photograph was taken. Four points for each eye from the taken fluorescent fundus photograph were scored on the basis of the following assessment criteria. [Assessment Criteria] [table]

[2] = Table 3, from the interview form and the package insert of each drug, read-out: Cmax
[3] = quoted in Test examples 2-3, 2-4, 2-5, read-out: Cmax (as quoted in the VEGF test examples)

O=C(O)CCc1nc(-c2ccccc2)c(-c2ccccc2)o1 [Oxaprozin, oxaprozin]
Formation of a drusen-like structure (HE staining) (mouse): apparently suppressed
Immunostaining of E-Cadherin in retinal epithelial cells (mouse): strongly positive staining was observed between cells
Immunostaining of Fibronectin (mouse): the signal strength of staining was small
Shape of retinal pigment epithelial cells (mouse): cells keeping a cubic shape were abundantly observed
Cmax ([1]; Alvo tablet Interview Form, repeated-dose administration, read-out: Cmax): 341 µM
Cmax [1, 2]: 341 µM
Cmax [1, 3]: 341 µM

CC(C(=O)O)c1ccc2c(c1)CC(=O)c1ccccc1S2 (centres unmarked) [Zaltoprofen, zaltoprofen]
Formation of a drusen-like structure (HE staining) (mouse): apparently suppressed
Immunostaining of E-Cadherin in retinal epithelial cells (mouse): strongly positive staining was observed between cells
Immunostaining of Fibronectin (mouse): the signal strength of staining was small
Shape of retinal pigment epithelial cells (mouse): cells keeping a cubic shape were abundantly observed
CNV by laser irradiation (fluorescent fundus photographs) (C57BL/6J mouse; FIG. 22): significantly suppressed
CNV score by laser irradiation (C57BL/6J mouse; two weeks after laser irradiation): significantly lower
Cmax ([1]; Pharmaceutical Interview Form, single-dose administration, read-out: Cmax): 20.4 µM
Cmax ([1]; Soleton tablet 80 Interview Form, single-dose administration, depending on the kind of the additive, read-out: Cmax): 16.8 µM
Cmax [1, 2]: 20.4 µM
Cmax [1, 3]: 20.4 µM
